Results published in article PMC5987058, “Therapeutic Potential of a Scorpion Venom-Derived Antimicrobial Peptide and Its Homologs Against Antibiotic-Resistant Gram-Positive Bacteria” (Frontiers in Microbiology, 2018).
Converted amounts (≈) assume the structure as drawn.

Columns and labels:
[1] = system: Staphylococcus aureus AB94004; conditions: comparison values; ref Zeng et al., 2004, 2012; Cao et al., 2012a; cited from earlier work
From the text: (§1) Table 1 In Vitro antimicrobial activities of marcin-18 and its homologs compared with other peptides and antibiotics. | column: MIC (μM) / BmKn2; MIC (μM) / Amp; MIC (μM) / Kana

[2] = system: Escherichia coli ATCC25922; conditions: comparison values; ref Zeng et al., 2004, 2012; Cao et al., 2012a; cited from earlier work
From the text: as §1

[3] = system: Staphylococcus aureus ATCC25923; conditions: comparison values; ref Zeng et al., 2004, 2012; Cao et al., 2012a; cited from earlier work
From the text: Table 1 In Vitro antimicrobial activities of marcin-18 and its homologs compared with other peptides and antibiotics. | column: MIC (μM) / BmKn2; MIC (μM) / Kana

[4] = system: Staphylococcus aureus AB94004; experiment: MIC, broth microdilution; type: cell-based; conditions: legend of Figure 6
Procedure: The antimicrobial activity was determined via a broth microdilution assay according to the procedure recommended by the Clinical and Laboratory Standards Institute with some modifications ([Hou et al., 2011]; [Li et al., 2016]). Bacteria were cultured in Luria-Bertani (LB) broth to OD600 = 0.6 at 37°C, then diluted to 10^5–10^6 CFU/mL in LB medium. Peptides were serially double diluted to a gradient concentration range from 48.3 to 1.5 μM in physiological saline. Eighty microliters of the bacterial suspension and 20 μL of diluted peptide at varying concentrations were added to 96-well plates, and then incubated for 16–18 h at 37°C with continuous shaking at 250 rpm. The antimicrobial activity of ampicillin and kanamycin were also tested as positive controls. Experiments were performed in triplicate. The minimum inhibitory concentration (MIC) was determined as the lowest peptide concentration at which no bacterial growth was observed.

[5] = system: Bacillus subtilis AB91021; conditions: comparison values; ref Zeng et al., 2004, 2012; Cao et al., 2012a; cited from earlier work
From the text: Table 1 In Vitro antimicrobial activities of marcin-18 and its homologs compared with other peptides and antibiotics. | column: MIC (μM) / BmKn2; MIC (μM) / BmKb1; MIC (μM) / Kana

MRSA P1381 [6] = experiment: Mouse peritonitis model; type: in vivo, BALB/c mice; conditions: n = 6
Procedure: Six to eight-week-old male BALB/c mice (18–21 g) were purchased from the Animal Center for Disease Control and Prevention (Hubei, China) and maintained under specific pathogen-free conditions at 25 ± 2°C and 50 ± 5% humidity, on a 12 h/12 h light/dark cycle.
All methods were performed in accordance with the relevant guidelines ([Dai et al., 2008]; [Peng et al., 2017]). The mice were intraperitoneally (i.p.) injected with 0.5 mL/mouse (5.85 × 10^7 CFU) of the exponential phase MRSA P1381 inoculum in physiological saline containing 5% (wt/v) mucin. At 1 h after the bacterial infection, the mice were i.p. injected with 0.4 mL/mouse of physiological saline (I) (to serve as a negative control), marcin-18 peptide (10 mg/kg) (II), marcin-18 peptide (25 mg/kg) (III), meucin-18 peptide (25 mg/kg) (IV), megicin-18 peptide (25 mg/kg) (V), and vancomycin (25 mg/kg) (VI). The vancomycin dose was set based on previous studies ([Cavanagh et al., 2013]; [Wang et al., 2018]). Each group included 6 mice. After another 24 h post administration, subject peritonea were lavaged with 1 mL of physiological saline and lavage fluids were then collected. Ascites were diluted and plated on LB agar so that the number of bacterial colonies could be counted. The ability of the three peptides to rescue mice from lethal bacteremia was observed 2–4 times daily and survival was tracked for 7 days.

MRSA P1369 = conditions: methicillin-resistant clinical isolate; comparison values; ref Zeng et al., 2004, 2012; Cao et al., 2012a; cited from earlier work
From the text: (§2) Table 1 In Vitro antimicrobial activities of marcin-18 and its homologs compared with other peptides and antibiotics. | column: MIC (μM) / BmKn2; MIC (μM) / Van

MRSA P1374 = conditions: methicillin-resistant clinical isolate; comparison values; ref Zeng et al., 2004, 2012; Cao et al., 2012a; cited from earlier work
From the text: as §2

MRSA P1386 = conditions: methicillin-resistant clinical isolate; comparison values; ref Zeng et al., 2004, 2012; Cao et al., 2012a; cited from earlier work
From the text: as §2

PRSA P1383 = conditions: penicillin-resistant clinical isolate; comparison values; ref Zeng et al., 2004, 2012; Cao et al., 2012a; cited from earlier work
From the text: as §2

PRSA P1389 = conditions: penicillin-resistant clinical isolate; comparison values; ref Zeng et al., 2004, 2012; Cao et al., 2012a; cited from earlier work
From the text: as §2

MRSA P1381 [7] = conditions: methicillin-resistant clinical isolate; comparison values; ref Zeng et al., 2004, 2012; Cao et al., 2012a; cited from earlier work
From the text: as §2

CC1(C)S[C@@H]2[C@H](NC(=O)[C@H](N)c3ccccc3)C(=O)N2[C@H]1C(=O)O [Amp, ampicillin]
MIC [1]: 67.3 µM (≈ 23.5 µg/mL) | MIC [2]: 33.7 µM (≈ 11.8 µg/mL)

NC[C@H]1O[C@H](O[C@H]2[C@H](O)[C@@H](O[C@H]3O[C@H](CO)[C@@H](O)[C@H](N)[C@H]3O)[C@H](N)C[C@@H]2N)[C@H](O)[C@@H](O)[C@@H]1O [Kana, kanamycin]
MIC [1]: 5.4 µM (≈ 2.62 µg/mL) | MIC [2]: 21.5 µM (≈ 10.4 µg/mL) | MIC [3]: 10.7 µM (≈ 5.18 µg/mL) | MIC of control substances [4]: 5.4 µM | MIC [5]: 42.9 µM (≈ 20.8 µg/mL)

CN[C@H](CC(C)C)C(=O)N[C@H]1C(=O)N[C@@H](CC(N)=O)C(=O)N[C@H]2C(=O)N[C@H]3C(=O)N[C@H](C(=O)N[C@H](C(=O)O)c4cc(O)cc(O)c4-c4cc3ccc4O)[C@H](O)c3ccc(c(Cl)c3)Oc3cc2cc(c3O[C@@H]2O[C@H](CO)[C@@H](O)[C@H](O)[C@H]2O[C@H]2C[C@](C)(N)[C@H](O)[C@H](C)O2)Oc2ccc(cc2Cl)[C@H]1O [Van, vancomycin]
survival of infected mice (MRSA P1381 [6]; 25 mg/kg i.p. single dose 1 h after i.p. 5.85 × 10^7 CFU MRSA P1381, 7 days): 100% | bacteria in ascites of antibiotic-treated group (MRSA P1381 [6]; 25 mg/kg i.p., peritoneal lavage 24 h after administration): few detectable bacteria | MIC (MRSA P1369): 4.2 µM (≈ 6.09 µg/mL) | MIC (MRSA P1374): 4.2 µM (≈ 6.09 µg/mL) | MIC (MRSA P1386): 2.1 µM (≈ 3.04 µg/mL) | MIC (PRSA P1383): 4.2 µM (≈ 6.09 µg/mL) | MIC (PRSA P1389): 4.2 µM (≈ 6.09 µg/mL) | MIC (MRSA P1381 [7]): 2.1 µM (≈ 3.04 µg/mL)

CC[C@H](C)[C@H](NC(=O)CN)C(=O)NCC(=O)N[C@@H](C)C(=O)N[C@H](C(=O)N[C@@H](CC(C)C)C(=O)N[C@@H](CCCCN)C(=O)N[C@H](C(=O)N[C@@H](CC(C)C)C(=O)N[C@H](C(=O)N[C@H](C(=O)NCC(=O)N[C@@H](CC(C)C)C(=O)N1CCC[C@H]1C(=O)N[C@@H](C)C(=O)N[C@@H](CC(C)C)C(=O)N[C@H](C(=O)N[C@@H](CO)C(=O)N[C@@H](Cc1c[nH]c2ccccc12)C(=O)N[C@H](C(=O)N[C@@H](CCCCN)C(=O)N[C@@H](CCCNC(=N)N)C(=O)N[C@@H](CCCCN)C(=O)N[C@@H](CCCNC(=N)N)C(=O)N[C@@H](CCC(N)=O)C(=O)N[C@@H](CCC(N)=O)C(N)=O)[C@@H](C)CC)[C@@H](C)CC)[C@@H](C)O)[C@@H](C)O)C(C)C)C(C)C [melittin]
MIC of control substances [4]: 2.2 µM
